Data from EP1799188B1, “USE OF PEPTIDES AS AN ANTIOXIDANT AGENT FOR THE PREPARATION OF A COSMETIC AND/OR PHARMACEUTICAL COMPOSITION” (Ashland Specialties France, priority 2004, dated 2015).

System: fibroblastes primaires
Experiment: Neutral red uptake cytotoxicity / cell viability test
Format: cell-based
Conditions: actif 1 %
Protocol: Des fibroblastes primaires sont ensemencés sur une plaque 96 puits (à 20000 cellules par puits environ). Une fois que les cellules ont atteint 70 % de confluence, le dipeptide dimérisé Cys-Gly selon l'invention, dilué à 1 %, est appliqué sur la plaque durant 24 heures. Une moitié de la plaque est alors irradiée par des UVB à 100 mJ/cm^2 et l'autre moitié non irradiée. Les cellules sont ensuite remises en culture pendant 24 h en présence de l'actif, puis incubées en présence de rouge neutre.
Le rouge neutre (un colorant « supravital ») se fixe spécifiquement aux lysosomes des cellules vivantes, la coloration sera ainsi proportionnelle à la viabilité des cellules. Après l'ajout d'une solution de révélation, solubilisant le rouge neutre, l'absorbance est mesurée à 540 nm.
Les résultats obtenus, représentés dans le tableau ci-dessous, représentent le pourcentage de viabilité cellulaire en fonction des différentes conditions étudiées, par rapport à la condition contrôle.

N[C@@H](CSSC[C@H](N)C(=O)NCC(=O)O)C(=O)NCC(=O)O [actif]
cytotoxicité (nocivité pour les cellules): n'est pas nocif pour les cellules
